Tests used:
S1R = target: T1, S1R (Homo sapiens, UniProt Q99720); assay: S1R competitive radioligand binding, [3H](+)-pentazocine, Jurkat cell membranes; conditions: for IC50: [3H]-(+)-pentazocine displacement, n = 2; for Ki (S2R)/ Ki (S1R): selectivity ratio S2R/S1R
T1 construct: For the S1R assay, Jurkat cell membranes (10–20 μg protein/tube) were incubated at 37 °C for 2 h; host or cells: Jurkat cell membranes
From the text: S1R and S2R affinities were classically evaluated through competitive binding assays using radioligands, following the protocol described by Ganapathy et al.. The selective radioligand [^3H] (+)-pentazocine was employed as the classic prototypical ligand, selectively binding to the orthosteric S1R-binding sites. […] Jurkat cell membranes served as the receptor source in both assays. The equilibrium dissociation constants (Ki) for S1R and S2R were derived from the IC50 values of each compound, and selectivity ratios (S2R/S1R) were subsequently calculated (Table 1, Figures S2 and S3).
Binding assays were performed by Eurofins Cerep (Poitiers, France) according to the protocol of Ganapathy. […] For the S2R assay, Jurkat cell membranes (10–20 μg protein/tube) were incubated at room temperature for 1 h in the same buffer with [^3H]-DTG (25 nM) in the presence of (+)-pentazocine (1 μM) to saturate S1R, along with a range of test compound concentrations. Bound radioactivity was quantified by liquid scintillation counting. Nonspecific binding was determined under identical conditions in the presence of 10 μM unlabeled haloperidol. The IC50 values (concentration causing a half-maximal inhibition of control-specific binding) and Hill coefficients (nH) were determined by non-linear regression analysis of the competition curves generated with mean replicate values using Hill equation curve-fitting. This analysis was performed using software developed at Cerep (Hill software) and validated by comparison with data generated by the commercial software SigmaPlot ®4.0 for Windows® (©1997 by SPSS Inc.). Inhibition constants (Ki) were calculated from IC50 values using the method of Cheng and Prusoff.

CYP1A = assay: CYP inhibition in human liver microsomes; assay type: in vitro ADME; conditions: n = 2, read-out: CYP inhibition 1A
Experimental: (§1) Microsomal stability was evaluated using human liver microsomes at 10 µM (Table 3). […] Since cytochrome P450 (CYP) enzymes—especially families 1 to 3—play major roles in drug metabolism, CYP inhibition was tested against the human isoforms CYP1A, 2B6, 2C8, 2C9, 2C19, 2D6, and 3A, as recommended by FDA and EMA guidelines. […] Membrane transport proteins, including the ATP-binding cassette (ABC) and solute carrier (SLC) families, affect drug pharmacokinetics and potential drug–drug interactions. The inhibitory effects of compounds 2 and 6 were assessed against five ABC transporters (P-gp, BCRP, MRP1, MRP2, and MRP3) and seven SLC transporters (OAT1, OAT3, OATP1B1, OCT1, OCT2, ASBT, and NTCP).
(§2) Standardized in vitro ADME experiments were performed by Eurofins Cerep (Poitiers, France). Solubility assays were performed in PBS at pH 7.4, but also in simulated gastric fluid (SGF) and intestinal fluid (SIF), through the classical shake-flask method described by Lipinski et al., using HPLC-UV/VIS technology. The results were expressed in µM. The compound was classically evaluated at 10 µM for all of the ADME analyses. Bidirectional permeability (apical A to basolateral B pH 6.5/7.4, and basolateral B to apical A pH 7.4/6.5) was assessed in the epithelial colorectal adenocarcinoma cell line (Caco-2 cell line). The results were expressed as ×10^−6 cm/s (Papp) and as % recovery. The efflux ratio, i.e., Papp (B→A)/Papp(A→B), was calculated. Plasma protein binding was analyzed by HPLC-MS/MS after 4 h of incubation at 37 °C, as described by Banker et al.. Concentration was evaluated by LC/MS-MS. CYP inhibition was performed in human liver microsomes as described in [28]. Analysis of the respective metabolites was performed by HPLC-MS/MS. Transporter inhibition analysis was also performed in overexpressing cell lines. Respective metabolites for each specific transporter substrate were analyzed by fluorometry or scintillation counting, and % inhibition of control values were calculated. P-glycoprotein transporter substrate assessment was performed by bidirectional permeability analysis (apical A to basolateral B pH 7.4/7.4, and basolateral B to apical A pH 7.4/7.4) in the Caco-2 cell line with and without verapamil, as described in [26]. The results were expressed as ×10^−6 cm/s (Papp) and as % recovery. The efflux ratio was calculated as Papp(B→A)/Papp(A→B). CYP450 induction was assessed in human hepatocytes by measuring the mRNA levels of seven CYP isoforms via qPCR, as described in [40]. The compound was tested at 1, 10, and 100 μM, and fold-induction values were compared with predefined cut-off thresholds for each isoform and hepatocyte lot.

CYP2B6 = target: T2, CYP2B6 (Homo sapiens, UniProt P20813); assay: CYP inhibition in human liver microsomes; assay type: in vitro ADME; conditions: n = 2, read-out: CYP inhibition 2B6
T2 construct: tissue Eurofins Cerep (assay provider); host or cells: human liver microsomes
T2 sequence (P20813 whole entry): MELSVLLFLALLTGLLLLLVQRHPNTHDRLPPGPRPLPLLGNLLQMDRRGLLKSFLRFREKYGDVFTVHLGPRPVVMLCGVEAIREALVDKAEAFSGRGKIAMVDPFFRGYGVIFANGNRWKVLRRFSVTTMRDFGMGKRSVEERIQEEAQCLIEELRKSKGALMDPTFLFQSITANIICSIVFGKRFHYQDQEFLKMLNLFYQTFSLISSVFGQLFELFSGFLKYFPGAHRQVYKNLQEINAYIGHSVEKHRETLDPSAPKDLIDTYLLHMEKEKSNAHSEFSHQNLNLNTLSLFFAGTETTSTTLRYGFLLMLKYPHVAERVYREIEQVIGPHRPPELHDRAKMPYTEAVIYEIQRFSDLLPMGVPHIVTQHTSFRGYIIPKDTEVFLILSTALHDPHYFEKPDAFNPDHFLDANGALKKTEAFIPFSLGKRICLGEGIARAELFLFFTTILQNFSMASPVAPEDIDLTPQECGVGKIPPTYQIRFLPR
Experimental: as §1, §2

CYP2C19 = target: T3, CYP2C19 (Homo sapiens, UniProt P33261); assay: CYP inhibition in human liver microsomes; assay type: in vitro ADME; conditions: n = 2, read-out: CYP inhibition 2C19
T3 construct: tissue Eurofins Cerep (assay provider); host or cells: human liver microsomes
T3 sequence (P33261 whole entry): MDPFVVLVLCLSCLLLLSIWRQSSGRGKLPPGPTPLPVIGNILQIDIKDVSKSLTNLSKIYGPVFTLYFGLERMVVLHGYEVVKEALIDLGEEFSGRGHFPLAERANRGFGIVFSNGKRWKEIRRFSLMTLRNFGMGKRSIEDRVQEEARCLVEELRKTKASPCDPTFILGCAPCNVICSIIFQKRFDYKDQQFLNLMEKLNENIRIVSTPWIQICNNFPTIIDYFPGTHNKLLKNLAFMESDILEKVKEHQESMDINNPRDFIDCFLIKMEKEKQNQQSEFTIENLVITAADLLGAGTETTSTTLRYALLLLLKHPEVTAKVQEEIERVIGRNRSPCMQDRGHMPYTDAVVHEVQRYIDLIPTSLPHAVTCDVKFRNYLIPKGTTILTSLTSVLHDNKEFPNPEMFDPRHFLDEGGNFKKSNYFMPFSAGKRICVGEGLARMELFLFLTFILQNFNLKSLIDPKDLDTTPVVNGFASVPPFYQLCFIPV
Experimental: as §1, §2

CYP2C8 = target: T4, CYP2C8 (Homo sapiens, UniProt P10632); assay: CYP inhibition in human liver microsomes; assay type: in vitro ADME; conditions: n = 2, read-out: CYP inhibition 2C8
T4 construct: tissue Eurofins Cerep (assay provider); host or cells: human liver microsomes
T4 sequence (P10632 whole entry): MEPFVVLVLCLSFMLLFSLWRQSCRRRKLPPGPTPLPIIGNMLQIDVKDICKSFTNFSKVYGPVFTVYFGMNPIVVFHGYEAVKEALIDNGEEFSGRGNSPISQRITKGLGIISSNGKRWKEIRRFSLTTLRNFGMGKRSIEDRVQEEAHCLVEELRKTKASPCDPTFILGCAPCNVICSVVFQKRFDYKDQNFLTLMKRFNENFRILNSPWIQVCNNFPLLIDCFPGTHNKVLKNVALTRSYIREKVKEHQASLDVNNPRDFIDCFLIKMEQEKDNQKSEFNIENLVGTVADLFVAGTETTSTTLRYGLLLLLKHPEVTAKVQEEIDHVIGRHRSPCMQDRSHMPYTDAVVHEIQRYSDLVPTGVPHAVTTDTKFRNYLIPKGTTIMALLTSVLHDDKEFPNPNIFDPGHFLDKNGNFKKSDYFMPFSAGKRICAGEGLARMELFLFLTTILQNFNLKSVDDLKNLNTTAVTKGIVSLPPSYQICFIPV
Experimental: as §1, §2

CYP2C9 = target: T5, CYP2C9 (Homo sapiens, UniProt P11712); assay: CYP inhibition in human liver microsomes; assay type: in vitro ADME; conditions: n = 2, read-out: CYP inhibition 2C9
T5 construct: tissue Eurofins Cerep (assay provider); host or cells: human liver microsomes
T5 sequence (P11712 whole entry): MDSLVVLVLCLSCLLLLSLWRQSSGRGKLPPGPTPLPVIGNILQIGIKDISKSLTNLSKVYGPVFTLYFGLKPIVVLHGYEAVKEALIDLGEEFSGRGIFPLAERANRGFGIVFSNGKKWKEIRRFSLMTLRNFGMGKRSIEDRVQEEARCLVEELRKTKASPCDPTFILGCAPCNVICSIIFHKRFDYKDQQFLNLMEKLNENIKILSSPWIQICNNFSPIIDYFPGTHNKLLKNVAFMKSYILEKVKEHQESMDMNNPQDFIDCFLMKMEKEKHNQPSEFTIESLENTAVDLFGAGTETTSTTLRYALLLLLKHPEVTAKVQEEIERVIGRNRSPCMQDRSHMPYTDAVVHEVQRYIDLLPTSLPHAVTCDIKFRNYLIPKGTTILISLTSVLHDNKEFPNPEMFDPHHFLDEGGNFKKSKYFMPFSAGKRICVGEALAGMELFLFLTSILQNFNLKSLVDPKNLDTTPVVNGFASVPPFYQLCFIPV
Experimental: as §1, §2

CYP2D6 = target: T6, CYP2D6 (Homo sapiens, UniProt P10635); assay: CYP inhibition in human liver microsomes; assay type: in vitro ADME; conditions: n = 2, read-out: CYP inhibition 2D6
T6 construct: tissue Eurofins Cerep (assay provider); host or cells: human liver microsomes
T6 sequence (P10635 whole entry): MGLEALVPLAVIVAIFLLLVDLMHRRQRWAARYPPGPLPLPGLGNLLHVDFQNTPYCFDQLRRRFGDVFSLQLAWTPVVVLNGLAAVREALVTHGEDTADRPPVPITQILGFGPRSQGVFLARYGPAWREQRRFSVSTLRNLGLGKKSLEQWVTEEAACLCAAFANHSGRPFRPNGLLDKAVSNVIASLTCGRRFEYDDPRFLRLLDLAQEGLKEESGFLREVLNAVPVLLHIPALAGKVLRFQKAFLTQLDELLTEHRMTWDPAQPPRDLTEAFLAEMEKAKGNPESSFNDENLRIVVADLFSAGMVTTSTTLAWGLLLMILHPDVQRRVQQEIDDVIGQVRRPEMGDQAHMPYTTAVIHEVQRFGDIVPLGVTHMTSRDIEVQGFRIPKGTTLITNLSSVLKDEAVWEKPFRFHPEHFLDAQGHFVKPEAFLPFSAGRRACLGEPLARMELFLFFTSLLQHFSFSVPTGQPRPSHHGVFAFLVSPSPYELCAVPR
Experimental: as §1, §2

CYP3A = assay: CYP inhibition in human liver microsomes; assay type: in vitro ADME; conditions: n = 2, read-out: CYP inhibition 3A
Experimental: as §1, §2

NTCP = NTCP (Homo sapiens, UniProt Q14973); assay: Transporter inhibition in overexpressing cell lines; assay type: in vitro ADME; conditions: SLC family, n = 2, read-out: Drug transport inhibition NTCP
Chain of NTCP (Q14973 whole entry): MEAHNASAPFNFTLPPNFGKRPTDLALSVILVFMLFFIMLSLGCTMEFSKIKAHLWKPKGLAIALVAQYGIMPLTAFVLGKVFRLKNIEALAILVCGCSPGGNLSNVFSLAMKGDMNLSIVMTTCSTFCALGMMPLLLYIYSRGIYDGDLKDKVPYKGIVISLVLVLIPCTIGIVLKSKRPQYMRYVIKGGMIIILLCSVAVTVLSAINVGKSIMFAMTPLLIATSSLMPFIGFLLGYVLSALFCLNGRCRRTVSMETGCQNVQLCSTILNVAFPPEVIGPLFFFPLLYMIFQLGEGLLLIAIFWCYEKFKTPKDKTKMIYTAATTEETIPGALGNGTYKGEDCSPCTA
Experimental: as §1, §2

OAT3 = OAT3 (Homo sapiens, UniProt Q8TCC7); assay: as above; assay type: in vitro ADME; conditions: SLC family, n = 2, read-out: Drug transport inhibition OAT3
Chain of OAT3 (Q8TCC7 whole entry): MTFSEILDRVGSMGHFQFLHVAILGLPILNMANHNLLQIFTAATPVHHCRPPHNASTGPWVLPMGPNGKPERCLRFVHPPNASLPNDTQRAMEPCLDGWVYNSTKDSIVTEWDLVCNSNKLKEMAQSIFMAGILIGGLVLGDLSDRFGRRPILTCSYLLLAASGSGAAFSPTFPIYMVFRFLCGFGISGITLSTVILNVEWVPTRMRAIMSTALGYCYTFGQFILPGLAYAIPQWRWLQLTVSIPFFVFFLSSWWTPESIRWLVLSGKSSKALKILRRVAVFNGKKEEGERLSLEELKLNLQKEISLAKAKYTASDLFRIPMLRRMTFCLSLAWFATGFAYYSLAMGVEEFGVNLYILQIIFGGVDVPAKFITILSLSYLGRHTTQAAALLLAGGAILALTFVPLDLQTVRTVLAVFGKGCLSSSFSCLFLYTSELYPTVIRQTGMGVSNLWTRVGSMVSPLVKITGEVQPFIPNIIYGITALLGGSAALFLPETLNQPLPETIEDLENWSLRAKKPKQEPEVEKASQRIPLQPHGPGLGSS
Experimental: as §1, §2

OCT1 = OCT1 (Homo sapiens, UniProt O15245); assay: as above; assay type: in vitro ADME; conditions: SLC family, n = 2, read-out: Drug transport inhibition OCT1
Chain of OCT1 (O15245 whole entry): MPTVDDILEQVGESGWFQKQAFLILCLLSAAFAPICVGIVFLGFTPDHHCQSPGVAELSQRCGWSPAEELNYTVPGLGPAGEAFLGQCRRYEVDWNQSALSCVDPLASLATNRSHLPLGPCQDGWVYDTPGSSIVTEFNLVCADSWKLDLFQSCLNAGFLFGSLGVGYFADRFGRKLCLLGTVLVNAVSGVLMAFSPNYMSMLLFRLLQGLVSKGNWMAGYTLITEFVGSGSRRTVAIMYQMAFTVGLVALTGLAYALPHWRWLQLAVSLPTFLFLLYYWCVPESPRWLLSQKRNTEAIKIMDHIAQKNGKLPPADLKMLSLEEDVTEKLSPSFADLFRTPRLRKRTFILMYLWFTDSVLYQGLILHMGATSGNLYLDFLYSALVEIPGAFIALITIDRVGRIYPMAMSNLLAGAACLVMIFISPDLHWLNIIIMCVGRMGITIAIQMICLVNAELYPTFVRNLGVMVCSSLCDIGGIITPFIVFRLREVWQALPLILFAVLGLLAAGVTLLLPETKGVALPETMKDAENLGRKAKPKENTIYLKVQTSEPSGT
Experimental: as §1, §2

T1 sequence (Q99720 whole entry): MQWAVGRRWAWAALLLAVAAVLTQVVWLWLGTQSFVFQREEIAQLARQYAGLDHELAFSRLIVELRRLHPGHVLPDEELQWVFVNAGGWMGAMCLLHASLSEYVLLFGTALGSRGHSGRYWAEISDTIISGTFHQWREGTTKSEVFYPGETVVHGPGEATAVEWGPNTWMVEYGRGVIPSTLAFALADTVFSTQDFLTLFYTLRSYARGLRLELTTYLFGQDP

CN(CCC(=O)NCc1cccc(Cl)c1)Cc1ccccc1 [Compound 2, 3-(Benzylmethylamino)-N-(3-chlorobenzyl)propanamide]
Ki (S1R; [3H](+)-pentazocine, Jurkat cell membranes, mean of 2–3 independent experiments): 0.6 nM | IC50 (S1R; Jurkat cell membranes): 1.2 nM | Ki (S2R)/ Ki (S1R) (S1R): 317 | inhibition at 10 µM (CYP1A): 23.3% | inhibition at 10 µM (CYP2B6): 16.9% | inhibition at 10 µM (CYP2C19): 43.9% | inhibition at 10 µM (CYP2C8): -16.8% | inhibition at 10 µM (CYP2C9): 13.1% | inhibition at 10 µM (CYP2D6): 80.5% | inhibition at 10 µM (CYP3A): 30.9% | inhibition at 10 µM (NTCP): 8.7% | inhibition at 10 µM (OAT3): 33.3% | inhibition at 10 µM (OCT1): 19.9%

CN(CCC(=O)NCc1ccc(C#N)cc1)Cc1ccccc1 [Compound 6, 3-(Benzylmethylamino)-N-(4-cyanobenzyl)propanamide]
IC50 (S1R; Jurkat cell membranes): 11 nM | Ki (S2R)/ Ki (S1R) (S1R): 331 | inhibition at 10 µM (CYP1A): 13.2% | inhibition at 10 µM (CYP2B6): 17.7% | inhibition at 10 µM (CYP2C19): 30% | inhibition at 10 µM (CYP2C8): -12.1% | inhibition at 10 µM (CYP2C9): 10% | inhibition at 10 µM (CYP2D6): 87.7% | inhibition at 10 µM (CYP3A): 17.4% | inhibition at 10 µM (NTCP): -12.5% | inhibition at 10 µM (OAT3): 27.8% | inhibition at 10 µM (OCT1): 2.4%

— publication PMC12430443, “Discovery of Novel Benzamide-Based Sigma-1 Receptor Agonists with Enhanced Selectivity and Safety” (Molecules, 2025)
